Reference: article PMC7915026, “Sulfaguanidine Hybrid with Some New Pyridine-2-One Derivatives: Design, Synthesis, and Antimicrobial Activity against Multidrug-Resistant Bacteria as Dual DNA Gyrase and DHFR Inhibitors” (Antibiotics, 2021)
Values after ≈ are worked out from the molar mass of the structure shown. Where two headings read alike, the source gives them in different places.

How the values were obtained:
[1] = system: B. subtilis ATCC 6633; test: Inhibition zone, paper disk/agar diffusion; assay type: cell-based; settings: B. subtilis; Na = no activity
Source text: (§1) The antimicrobial activity performed at the bacteriology laboratory, Botany and Microbiology Department, Faculty of Science, Al-Azhar University, Cairo, Egypt. The inhibition zone (IZ) of the tested derivatives expressed as the diameter (mm) according to the agar plate diffusion method.

[2] = system: C. albicans (ATCC 10231); test: Inhibition zone, paper disk/agar diffusion; assay type: cell-based; settings: Na = no activity
Source text: as §1

[3] = system: E. coli ATCC 25922; test: Inhibition zone, paper disk/agar diffusion; assay type: cell-based; settings: E. coli; Na = no activity
Source text: as §1

[4] = system: E. faecalis ATCC 29212; test: Inhibition zone, paper disk/agar diffusion; assay type: cell-based; settings: E. faecalis; Na = no activity
Source text: as §1

[5] = system: F. oxysporum (RCMB 008002); test: Inhibition zone, paper disk/agar diffusion; assay type: cell-based; settings: Na = no activity
Source text: as §1

[6] = system: P. aeruginosa ATCC 27853; test: Inhibition zone, paper disk/agar diffusion; assay type: cell-based; settings: P. aeruginosa; Na = no activity
Source text: as §1

[7] = system: S. aureus ATCC 29213; test: Inhibition zone, paper disk/agar diffusion; assay type: cell-based; settings: S. aureus; Na = no activity
Source text: as §1

[8] = system: S. typhi ATCC 6539; test: Inhibition zone, paper disk/agar diffusion; assay type: cell-based; settings: S. typhi; Na = no activity
Source text: as §1

[9] = system: B. subtilis ATCC 6633; test: MIC and MBC determination; assay type: cell-based; settings: B. subtilis
[10] = system: S. aureus ATCC 29213; test: MIC and MBC determination; assay type: cell-based; settings: S. aureus
[11] = system: E. faecalis ATCC 29212; test: MIC and MBC determination; assay type: cell-based; settings: E. faecalis
[12] = system: E. coli ATCC 25922; test: MIC and MBC determination; assay type: cell-based; settings: E. coli
[13] = system: P. aeruginosa ATCC 27853; test: MIC and MBC determination; assay type: cell-based; settings: Pseudomonas aeruginosa, ATCC27853, P. aeruginosa
[14] = system: Salmonella typhi (S. typhi ATCC 6539); test: microbe, parasite or virus in culture; assay type: cell-based; settings: Salmonella enterica, Salmonella typhi
[15] = system: C. albicans (ATCC 10231); test: MIC and MFC determination; assay type: cell-based
[16] = system: F. oxysporum (RCMB 008002); test: MIC and MFC determination; assay type: cell-based
[17] = system: E. coli ATCC BAA-196; test: Inhibition zone against multidrug-resistant bacteria; assay type: cell-based; settings: MDRB E. coli ATCC BAA-196
Source text: (§2) Norfloxacin was used as a positive control for the multidrug resistance study.
as §1

[18] = system: P. aeruginosa ATCC BAA-2111; test: as above; assay type: cell-based; settings: MDRB P. aeruginosa ATCC BAA-2111
Source text: as §2, §1

[19] = system: S. aureus ATCC 33591; test: as above; assay type: cell-based; settings: MDRB S. aureus ATCC 33591
Source text: as §2, §1

[20] = system: S. aureus ATCC 43300; test: as above; assay type: cell-based; settings: MDRB S. aureus ATCC 43300
Source text: as §2, §1

[21] = system: E. coli ATCC BAA-196; test: MIC and MBC against multidrug-resistant strains; assay type: cell-based; settings: Escherichia coli, ATCCBAA196, E. coli ATCC BAA-196
Source text: as §2
(§3) The experiment was repeating for three-times.

[22] = system: P. aeruginosa ATCC BAA-2111; test: MIC and MBC against multidrug-resistant strains; assay type: cell-based; settings: P. aeruginosa ATCC BAA-2111
Source text: as §2, §3

[23] = system: S. aureus ATCC 33591; test: MIC and MBC against multidrug-resistant strains; assay type: cell-based; settings: Staphylococcus aureus, ATCC33591, S. aureus ATCC 33591
Source text: as §2, §3

[24] = system: S. aureus ATCC 43300; test: MIC and MBC against multidrug-resistant strains; assay type: cell-based; settings: Staphylococcus aureus, ATCC43300, S. aureus ATCC 43300
Source text: as §2, §3

[25] = biological target: S. aureus DNA gyrase (Staphylococcus aureus, UniProt P0A0K8+P20831); test: In vitro DNA gyrase supercoiling enzymatic assay; assay type: biochemical
[26] = biological target: E. coli DHFR (dihydrofolate reductase) (Escherichia coli, UniProt P0ABQ4); test: In vitro DHFR enzymatic assay; assay type: biochemical
[27] = system: MDRB strains; test: MIC and MBC, ranges over the MDRB panel; assay type: cell-based; settings: four MDRB strains
Source text: as §2, §3

E. coli DHFR (dihydrofolate reductase), sequence (P0ABQ4 whole entry): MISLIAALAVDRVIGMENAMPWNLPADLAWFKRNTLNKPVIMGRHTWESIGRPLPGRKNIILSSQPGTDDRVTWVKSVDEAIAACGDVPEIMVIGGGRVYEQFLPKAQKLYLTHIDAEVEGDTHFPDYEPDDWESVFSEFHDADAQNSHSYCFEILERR
S. aureus DNA gyrase, sequence (P20831 whole entry): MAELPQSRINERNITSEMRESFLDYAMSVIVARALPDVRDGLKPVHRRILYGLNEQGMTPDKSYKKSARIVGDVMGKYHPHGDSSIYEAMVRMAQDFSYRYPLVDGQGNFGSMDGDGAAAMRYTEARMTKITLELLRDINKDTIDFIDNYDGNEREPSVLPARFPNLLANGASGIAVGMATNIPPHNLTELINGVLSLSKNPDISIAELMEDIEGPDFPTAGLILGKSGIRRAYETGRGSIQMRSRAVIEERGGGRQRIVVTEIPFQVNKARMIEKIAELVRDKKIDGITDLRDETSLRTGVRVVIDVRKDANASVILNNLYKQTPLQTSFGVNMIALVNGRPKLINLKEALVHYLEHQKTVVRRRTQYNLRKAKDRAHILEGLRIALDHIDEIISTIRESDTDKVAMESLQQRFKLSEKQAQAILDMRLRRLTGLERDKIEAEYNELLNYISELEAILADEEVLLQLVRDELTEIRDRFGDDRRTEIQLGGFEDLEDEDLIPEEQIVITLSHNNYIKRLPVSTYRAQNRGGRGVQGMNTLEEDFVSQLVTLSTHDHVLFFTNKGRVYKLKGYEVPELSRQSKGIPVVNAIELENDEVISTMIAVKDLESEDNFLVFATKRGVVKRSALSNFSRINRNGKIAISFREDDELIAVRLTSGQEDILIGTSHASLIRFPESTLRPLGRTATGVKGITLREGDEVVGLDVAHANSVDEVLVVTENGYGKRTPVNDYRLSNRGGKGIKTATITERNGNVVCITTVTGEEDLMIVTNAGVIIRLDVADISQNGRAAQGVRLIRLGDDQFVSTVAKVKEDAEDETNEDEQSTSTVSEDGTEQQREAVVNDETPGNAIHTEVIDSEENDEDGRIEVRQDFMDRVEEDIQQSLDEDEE
S. aureus DNA gyrase, sequence (P0A0K8 whole entry): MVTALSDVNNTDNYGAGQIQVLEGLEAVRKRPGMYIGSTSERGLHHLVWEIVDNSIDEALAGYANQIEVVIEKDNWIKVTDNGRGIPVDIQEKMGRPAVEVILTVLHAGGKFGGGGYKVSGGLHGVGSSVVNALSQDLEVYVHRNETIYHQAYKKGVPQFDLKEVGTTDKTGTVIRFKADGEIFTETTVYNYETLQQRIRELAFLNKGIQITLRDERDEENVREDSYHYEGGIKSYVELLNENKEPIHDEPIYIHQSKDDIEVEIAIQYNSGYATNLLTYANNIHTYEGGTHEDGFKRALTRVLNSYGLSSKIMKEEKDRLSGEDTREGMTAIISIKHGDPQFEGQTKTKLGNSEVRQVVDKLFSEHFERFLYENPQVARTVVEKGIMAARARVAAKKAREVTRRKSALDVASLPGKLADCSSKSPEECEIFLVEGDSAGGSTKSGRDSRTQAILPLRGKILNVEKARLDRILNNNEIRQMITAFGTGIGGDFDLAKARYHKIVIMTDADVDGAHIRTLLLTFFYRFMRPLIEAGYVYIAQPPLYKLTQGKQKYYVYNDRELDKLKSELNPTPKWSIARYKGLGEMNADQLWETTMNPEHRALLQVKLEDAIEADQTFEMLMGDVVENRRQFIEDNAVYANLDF

N#Cc1c(-c2ccc(Cl)cc2)c(C#N)c(=O)n(-c2ccc(S(=O)(=O)NC(=N)N)cc2)c1N [Compound 3a, 4-(6-Amino-4-(4-chlorophenyl)-3,5-dicyano-2-oxopyridin-1(2H)-yl)-N-carbamimidoylbenzenesulfonamide]
Mean Diameter of the Inhibition Zone [1]: 31 ± 0.40 mm
Mean Diameter of the Inhibition Zone [2]: 22 ± 0.35 mm
Mean Diameter of the Inhibition Zone [3]: 24 ± 0.20 mm
Mean Diameter of the Inhibition Zone [4]: 21 ± 0.11 mm
Mean Diameter of the Inhibition Zone [5]: 21 ± 0.30 mm
Mean Diameter of the Inhibition Zone [6]: 20 ± 0.15 mm
Mean Diameter of the Inhibition Zone [7]: 25 ± 0.31 mm
Mean Diameter of the Inhibition Zone [8]: 18 ± 0.16 mm
MBC [9]: 19.6 ± 0.65 µM (≈ 9.17 µg/mL)
MIC [9]: 9.61 ± 1.65 µM (≈ 4.5 µg/mL)
MBC ([9]; Bacillus subtilis, ATCC6633, read-out: MBC): 19.6 µM (≈ 9.17 µg/mL)
MIC ([9]; Bacillus subtilis, ATCC6633, read-out: MIC): 9.61 µM (≈ 4.5 µg/mL)
MBC [10]: 33.38 ± 0.65 µM (≈ 15.6 µg/mL)
MIC [10]: 16.69 ± 0.87 µM (≈ 7.81 µg/mL)
MBC ([10]; Staphylococcus aureus, ATCC29213, read-out: MBC): 33.4 µM (≈ 15.6 µg/mL)
MIC ([10]; Staphylococcus aureus, ATCC29213, read-out: MIC): 16.7 µM (≈ 7.81 µg/mL)
MBC [11]: 15.83 ± 0.47 µM (≈ 7.41 µg/mL)
MIC [11]: 8.33 ± 0.36 µM (≈ 3.9 µg/mL)
MBC ([11]; Enterococcus faecalis, ATCC29212, read-out: MBC): 15.8 µM (≈ 7.41 µg/mL)
MIC ([11]; Enterococcus faecalis, ATCC29212, read-out: MIC): 8.33 µM (≈ 3.9 µg/mL)
MBC [12]: 30.02 ± 0.52 µM (≈ 14 µg/mL)
MIC [12]: 16.69 ± 0.84 µM (≈ 7.81 µg/mL)
MBC ([12]; Escherichia coli, ATCC25922, read-out: MBC): 30 µM (≈ 14 µg/mL)
MIC ([12]; Escherichia coli, ATCC25922, read-out: MIC): 16.7 µM (≈ 7.81 µg/mL)
MBC ([13]; read-out: MBC): 66.8 ± 0.87 µM (≈ 31.2 µg/mL)
MIC ([13]; read-out: MIC): 33.4 ± 0.35 µM (≈ 15.6 µg/mL)
MBC ([14]; read-out: MBC): 22.6 ± 0.32 µM (≈ 10.6 µg/mL)
MIC ([14]; read-out: MIC): 11.9 ± 0.62 µM (≈ 5.57 µg/mL)
MFC [15]: 26.69 ± 0.54 µM (≈ 12.5 µg/mL)
MFC/MIC [15]: <2
MIC [15]: 16.69 ± 0.75 µM (≈ 7.81 µg/mL)
MFC ([15]; Candida albicans, ATCC10231, read-out: MFC): 26.7 µM (≈ 12.5 µg/mL)
MIC ([15]; Candida albicans, ATCC10231, read-out: MIC): 16.7 µM (≈ 7.81 µg/mL)
MFC [16]: 56.74 ± 0.98 µM (≈ 26.5 µg/mL)
MFC/MIC [16]: <2
MIC [16]: 33.38 ± 0.74 µM (≈ 15.6 µg/mL)
MFC ([16]; Fusarium oxysporum, RCMB008002, read-out: MFC): 56.7 µM (≈ 26.5 µg/mL)
MIC ([16]; Fusarium oxysporum, RCMB008002, read-out: MIC): 33.4 µM (≈ 15.6 µg/mL)
Mean Diameter of Inhibition Zone [17]: 22 ± 0.23 mm
Mean Diameter of Inhibition Zone [18]: 24 ± 0.22 mm
Mean Diameter of Inhibition Zone [19]: 23 ± 0.47 mm
Mean Diameter of Inhibition Zone [20]: 25 ± 0.4 mm
MBC ([21]; read-out: MBC): 33.4 ± 0.84 µM (≈ 15.6 µg/mL)
MIC ([21]; read-out: MIC): 16.7 ± 0.41 µM (≈ 7.81 µg/mL)
MBC [22]: 14.23 ± 0.65 µM (≈ 6.66 µg/mL)
MIC [22]: 9.48 ± 0.54 µM (≈ 4.44 µg/mL)
MBC ([22]; Pseudomonas aeruginosa, ATCCBAA2111, read-out: MBC): 14.2 µM (≈ 6.66 µg/mL)
MIC ([22]; Pseudomonas aeruginosa, ATCCBAA2111, read-out: MIC): 9.48 µM (≈ 4.44 µg/mL)
MBC ([23]; read-out: MBC): 23.7 ± 0.28 µM (≈ 11.1 µg/mL)
MIC ([23]; read-out: MIC): 11.8 ± 0.24 µM (≈ 5.54 µg/mL)
MBC ([24]; read-out: MBC): 16.3 ± 0.36 µM (≈ 7.61 µg/mL)
MIC ([24]; read-out: MIC): 8.33 ± 0.29 µM (≈ 3.9 µg/mL)
IC50 [25]: 22 ± 1.35 µM
fold potency relative to ciprofloxacin ([25]; S. aureus DNA gyrase IC50): ~1.19 fold
IC50 [26]: 5.44 ± 0.95 µM
fold relative to trimethoprim ([26]; E. coli DHFR IC50): 0.94 fold
MBC range [27]: 14.23 to 33.38 µM
MIC range [27]: 8.33 to 16.69 µM
